Test results: patent US6017957A (priority 1989, dated 2000)
Where two headings read alike, the source gives them in different places.

Legend:
NMDA-induced convulsions = NMDA-induced convulsions and death (anticonvulsant activity); assay type: in vivo, male NIH-Swiss mice; settings: for ED50: Mus musculus, ip, read-out: ED50, protection against NMDA-induced convulsions and death; for dose-response curve shape: NMDA-induced convulsions; for fold more potent than parent compound (ACPC): anticonvulsant potency in vivo
Protocol: (§1) Male (25-30 g) NIH-Swiss mice (Harlan Sprague-Dawley, Frederick, Md.) were group housed in 32 cm×25 cm×15 cm plastic cages (10-15/cage) with food and water freely available. Mice were injected intraperitoneally with the test substance and challenged fifteen minutes later (unless otherwise specified) with NMDA (125 mg/kg), pentylenetetrazole (PTZ) (80mg/kg), strychnine (strych.) hemisulfate (2 mg/kg, as the base), bicuculline (bicuc.) (6 mg/kg) or maximal electroshock (MES). NMDA, PTZ, and strych. hemisulfate were dissolved in distilled water. Bicuculline was dissolved in 0.01 N HC1. These compounds were injected in a volume of 0.1 ml 1-aminocyclopropanecarboxylates were dissolved in distilled water and doses ≤500 mg/kg injected in a volume of 0.1 ml; doses >500 mg/kg were injected in proportionately larger volumes. Immediately after convulsant challenge, mice were placed in 28.5 cm×17.8 cm×12 cm plastic cages (1/cage) and observed for 15 minutes. The presence or absence of convulsions and the time to the first convulsive episode (latency) were noted. MES were produced by applying a 50 mA current through alligator clips attached to the pinnae for 0.2 s.

[1] = system: pentylenetetrazole (PTZ)-induced convulsions; assay: PTZ-induced convulsions; assay type: in vivo, male NIH-Swiss mice
Protocol: as §1

[2] = system: bicuculline-induced convulsions; assay type: in vivo, male NIH-Swiss mice
Protocol: as §1

[3] = system: strychnine-induced convulsions; assay type: in vivo, male NIH-Swiss mice
Protocol: as §1

[4] = system: maximal electroshock seizures; assay: Maximal electroshock seizures (MES); assay type: in vivo, male NIH-Swiss mice; settings: for effect on MES: ACPC 200-2000, ACPCM 114-571 mg/kg
Protocol: as §1

[5] = system: motor performance (rotarod); assay: Motor performance, rotarod; assay type: in vivo, NIH-Swiss mice; settings: for impairment of performance in rotarod test: ACPC 100-2000, ACPCM 19-571 mg/kg, MK-801 1 mg/kg, thirty minutes; for % Impairment, Rotarod: i.p., ACPC 400-2000, ACPCM 114-571, MK-801 1 mg/kg
Source text: (§2) Evaluation of motor performance:

[6] = system: motor performance (horizontal wire); assay: Motor performance, horizontal (hanging) wire test; assay type: in vivo, NIH-Swiss mice; settings: for impairment of performance in hanging (horizontal) wire test: ACPC 100-2000, ACPCM 19-571 mg/kg, MK-801 1 mg/kg, thirty minutes; for % Impairment, Hanging Wire: i.p., ACPC 400-2000, ACPCM 114-571, MK-801 1 mg/kg
Source text: as §2

[7] = target: T1, strychnine-insensitive glycine receptors (NMDA receptor complex) (Rattus norvegicus, UniProt P35439); settings: cited from earlier work
T1 construct: Synaptic membranes were prepared from forebrains of adult; from tissue; host or cells: forebrain (whole brain minus cerebellum and brainstem) synaptic membranes of adult male Sprague-Dawley rats

NMDA receptor complex = settings: compared with glycine; Marvizon et al, 1989; cited from earlier work
[8] = system: NMDA-gated cation channels; settings: Nadler et al, 1988; cited from earlier work
[9] = system: strychnine insensitive glycine binding site of the N-methyl-D-aspartate (NMDA) receptor complex; settings: Marvizon, 1989; cited from earlier work
Overt behavioral effects = settings: for overt behavioral effects: ACPC 100-2000, ACPCE 39-195, ACPCM 19-571 mg/kg
[10] = system: pentylenetetrazole (PTZ)-induced convulsions; settings: MK-801; Clineschmidt et al, 1982a; cited from earlier work
[11] = system: strychnine-induced convulsions; settings: MK-801; Clineschmidt et al, 1982a; cited from earlier work
[12] = system: bicuculline-induced convulsions; settings: MK-801; Clineschmidt et al, 1982a; cited from earlier work
[13] = system: [^3 H]glycine binding (NMDA receptor complex); settings: MK-801 10 μM; Marvizon and Skolnick, 1988; cited from earlier work
[14] = target: T1, strychnine-insensitive glycine receptors (NMDA receptor complex); assay: Inhibition of [^3 H]glycine binding; assay type: male Sprague-Dawley rats (forebrain synaptic membranes); settings: rat forebrain synaptic membranes, 0-4°, 60 min
Protocol: Membrane preparation: Synaptic membranes were prepared from forebrains of adult (250-350 g) male Sprague-Dawley rats (Taconic Farms, Germantown, N.Y.) by modification of the method of Bristow et al, (1986). In brief, forebrains (whole brain minus cerebellum and brainstem) were weighed and then disrupted for 30 s (Ultra-Turrax, Model STD) in 10 volumes of 0.32 M sucrose containing 5 mM HEPES/4.5 mM Tris pH 7.4. The homogenate was diluted to 50 volumes with this buffer and centrifuged for 10 minutes (1000×g). […]
[^3 H]Glycine binding: Immediately prior to assay, aliquots were thawed at 0-40 and "washed" 3 more times as described above. Membranes (0.1-0.3 mg prot.) were incubated for 60 minutes at 0-4° in HEPES-Tris buffer containing 1 mM MgCl2, ([^3 H]glycine (20 Ci/mmol, ISN, Irvine, Calif.), and drugs as indicated. Nonspecific binding was defined using 1 mM glycine. Incubations (1 ml) were terminated by centrifugation (Eppendorf Model 5414 Microfuge, 5 minutes) and the pellets washed superficially with 1 ml of assay buffer. The pellets were solubilized with 0.5 ml of NCS (Amersham, Arlington Heights, Ill.), agitated for 45 minutes, and 0.05 ml of glacial acetic acid added. Four ml of OCS (Amersham) was added and the radioactivity measured in a Beckman LS 5801 liquid scintillation counter.

[15] = i.p., 15 min before NMDA 125 mg/kg, ACPC 100-500, ACPCE 39-195, ACPCM 19-190 mg/kg
[16] = ACPC 200-2000, ACPCM 114-571 mg/kg i.p.
[17] = NMDA 125 mg/kg, vehicle injected mice

## NC1(C(=O)O)CC1 [ACPC, 1-aminocyclopropanecarboxylic acid]
NMDA-induced convulsions; ACPC 400 mg/kg
  anticonvulsant effect still manifest after (duration): 30 min
  maximum protection against NMDA-induced convulsions: 85%
NMDA-induced convulsions; ACPC 400 mg/kg, 15 minutes prior to NMDA
  protection against NMDA-induced convulsions and death (efficacy, time): most efficacious
NMDA-induced convulsions
  ED50: 234 mg/kg
  dose-response curve shape: "bell-shaped" dose-response curve
NMDA-induced convulsions; i.p.
  Complete protection against NMDA-induced convulsions: inability of ACPC to completely block NMDA-induced convulsions
NMDA-induced convulsions; [15]
  Effect on convulsions induced by NMDA (125): +
[1]; ACPC 400 mg/kg
  latency to convulsions induced by PTZ: not significantly altered
  protection against PTZ-induced convulsions: did not afford significant protection
[1]; ACPC 400 mg/kg i.p., PTZ 80 mg/kg
  Effect on convulsions induced by PTZ (80): -
[2]; ACPC 400 mg/kg
  latency to convulsions induced by bicuc.: not significantly altered
  protection against bicuc.-induced convulsions: did not afford significant protection
[2]; ACPC 400 mg/kg i.p., bicuculline 6 mg/kg
  Effect on convulsions induced by BICUC. (6): -
[3]; ACPC 400 mg/kg
  latency to convulsions induced by strych.: not significantly altered
  protection against strych.-induced convulsions: did not afford significant protection
[3]; ACPC 400 mg/kg i.p., strychnine 2 mg/kg
  Effect on convulsions induced by STRYCH. (2): -
[4]
  effect on MES: Neither ACPC (200-2000 mg/kg) nor ACPCM (114-571 mg/kg) had a significant, dose-dependent effect
[4]; [16]
  Effect on convulsions induced by MES: -
[5]
  impairment of performance in rotarod test: no impairment
  % Impairment, Rotarod: 0%
[6]
  impairment of performance in hanging (horizontal) wire test: no impairment
  % Impairment, Hanging Wire: 0%
[7]; ACPC, Marvizon et al, 1989, read-out: Inhibition of [^3 H] glycine binding IC50
  IC50: 38 ± 7 nM
[7]; Marvizon et al, 1989
  inhibition of strychnine-insensitive [^3 H]glycine binding (type): potent, competitive inhibitor
[7]; Marvizon et al, 1989, read-out: affinity K1 for strychnine-insensitive glycine receptors in vitro
  Ki: 32 nM
NMDA receptor complex
  enhancement of [3H]MK-801 binding: enhances [3H]MK-801 binding to this supramolecular complex with a lower efficacy than glycine
[8]
  enhancement of [^3 H]TCP binding: enhances [^3 H]TCP binding
[9]
  partial agonism at strychnine insensitive glycine binding site: potent and selective partial agonist
Overt behavioral effects
  overt behavioral effects: No overt behavioral effects
Overt behavioral effects; mouse, in vivo
  overt behavioral effects or neurotoxicity: lack of overt behavioral effects or neuro-toxicity
  therapeutic index versus competitive or non-competitive NMDA receptor antagonists: greater therapeutic index

## CN[C@H](CC(=O)O)C(=O)O [NMDA, N-methyl-D-aspartate, reference compound]
NMDA-induced convulsions; [17]
  convulsions and death, mice affected: all
  latency to convulsions: 4.6 ± 0.4 min

## CN1CCc2cc3c(cc2[C@H]1[C@@H]1OC(=O)c2c1ccc1c2OCO1)OCO3 [bicuculline, reference compound]
[2]; bicuculline 6 mg/kg
  convulsions, % of mice: 100%
  latency to convulsions: 2.1 ± 0.3 min

## O=C1C[C@@H]2OCC=C3CN4CC[C@]56c7ccccc7N1[C@H]5[C@H]2[C@H]3C[C@H]46 [strychnine, reference compound]
[3]; strychnine 2 mg/kg
  convulsions, % of mice: 100%
  latency to convulsions: 3.1 ± 0.4 min

## C[C@]12N[C@H](Cc3ccccc31)c1ccccc12 [MK-801, (+)-5-Methyl-10,11-dihydro-5H-dibenzo [a,d]cyclo-hepten-5,10-imine, reference compound]
NMDA-induced convulsions; MK-801 1 mg/kg i.p., positive control, superscript 3
  Effect on convulsions induced by NMDA (125): +
NMDA-induced convulsions; MK-801 1 mg/kg, thirty minutes following administration
  protection against NMDA-induced lethality: complete protection
[4]; MK-801 1 mg/kg i.p., superscripts 1,3
  Effect on convulsions induced by MES: +
[4]; MK-801 1 mg/kg, thirty minutes before MES
  abolished hindclimb tonic extensor component of MES, % of mice: 87%
[5]
  impairment of performance in rotarod test: complete impairment
  % Impairment, Rotarod: 100%
[6]
  impairment of performance in hanging (horizontal) wire test: complete impairment
  % Impairment, Hanging Wire: 100%
[10]
  Effect on convulsions induced by PTZ (80): +
[11]
  Effect on convulsions induced by STRYCH. (2): -
[12]
  Effect on convulsions induced by BICUC. (6): +
[7]; MK-801, Marvizon and Skolnick, 1988
  Inhibition of [^3 H] glycine binding, mode: noncom-
[13]
  inhibition of activation of [^3 H]glycine binding by Mg^+2: non-competitively inhibits
Overt behavioral effects; MK-801 1 mg/kg, thirty minutes after administration
  hyperactivity: profound hyperactivity

## C1CCc2nnnn2CC1 [pentylenetetrazole, reference compound]
[1]; PTZ 80 mg/kg
  convulsions, % of mice: 100%
  latency to convulsions: 1.4 ± 0.2 min

## COC(=O)C1(N)CC1 [ACPCM, methyl 1-aminocyclopropanecarboxylate]
NMDA-induced convulsions; ACPCM 114 mg/kg
  maximum efficacy apparent after injection (time): 5 to 15 min
  onset and duration of anticonvulsant action relative to ACPC: manifest more rapidly than ACPC but of shorter duration
NMDA-induced convulsions
  ED50: 46 mg/kg
  dose-response curve shape: "bell-shaped" dose response curve
  fold more potent than parent compound (ACPC): ~ 5 fold
NMDA-induced convulsions; i.p.
  Complete protection against NMDA-induced convulsions: neither ester could completely block NMDA-induced convulsions and deaths
NMDA-induced convulsions; [15]
  Effect on convulsions induced by NMDA (125): +
[4]
  effect on MES: Neither ACPC (200-2000 mg/kg) nor ACPCM (114-571 mg/kg) had a significant, dose-dependent effect
[4]; [16]
  Effect on convulsions induced by MES: -
[5]
  impairment of performance in rotarod test: no impairment
  % Impairment, Rotarod: 0%
[6]
  impairment of performance in hanging (horizontal) wire test: no impairment
  % Impairment, Hanging Wire: 0%
[14]
  IC50: > 40000 nM
Overt behavioral effects
  overt behavioral effects: No overt behavioral effects
Overt behavioral effects; mouse, in vivo
  overt behavioral effects or neurotoxicity: no overt behavioral effects or neurotoxicity were observed

## CCOC(=O)C1(N)CC1 [ACPCE, ethyl l-aminocyclopropanecarboxylate]
NMDA-induced convulsions
  ED50: 100 mg/kg
  dose-response curve shape: "bell-shaped" dose response curve
  fold more potent than parent compound (ACPC): ~ 2.3 fold
NMDA-induced convulsions; i.p.
  Complete protection against NMDA-induced convulsions: neither ester could completely block NMDA-induced convulsions and deaths
NMDA-induced convulsions; [15]
  Effect on convulsions induced by NMDA (125): +
[14]
  IC50: > 40000 nM
Overt behavioral effects
  overt behavioral effects: No overt behavioral effects
Overt behavioral effects; mouse, in vivo
  overt behavioral effects or neurotoxicity: no overt behavioral effects or neurotoxicity were observed
